Earlier results on one compound are cited in patent US20110195988A1, “Pharmaceutical Composition” (Special Products Limited, priority 2010, published 2011).

For the series the following is noted: oral formulations of morphine.

With `CN1CC[C@]23c4c5ccc(O)c4O[C@H]2[C@@H](O)C=C[C@H]3[C@H]1C5` [morphine], the “time after administration at which the analgesic effect is observed” value is on record as “around 30 minutes”.
